The target of this experiment is T1, hFXR (Homo sapiens, UniProt Q96RI1).
T1 construct: expressed in transfected cells; host or cells: CV-1 cells
T1 sequence (Q96RI1 1-486): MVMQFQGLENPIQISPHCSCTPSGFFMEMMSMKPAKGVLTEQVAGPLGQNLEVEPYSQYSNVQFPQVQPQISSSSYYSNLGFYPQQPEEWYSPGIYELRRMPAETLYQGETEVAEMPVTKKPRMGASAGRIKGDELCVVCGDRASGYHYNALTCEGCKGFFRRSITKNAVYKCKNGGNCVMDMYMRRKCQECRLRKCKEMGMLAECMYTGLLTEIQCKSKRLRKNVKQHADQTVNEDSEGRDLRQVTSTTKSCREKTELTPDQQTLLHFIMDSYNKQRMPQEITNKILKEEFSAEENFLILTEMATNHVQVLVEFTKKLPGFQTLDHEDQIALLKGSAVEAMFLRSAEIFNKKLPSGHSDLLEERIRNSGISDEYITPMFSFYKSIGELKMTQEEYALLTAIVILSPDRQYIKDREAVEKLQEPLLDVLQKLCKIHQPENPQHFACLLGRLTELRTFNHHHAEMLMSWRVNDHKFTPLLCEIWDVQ
T1 sequence (P19793 1-462 partner): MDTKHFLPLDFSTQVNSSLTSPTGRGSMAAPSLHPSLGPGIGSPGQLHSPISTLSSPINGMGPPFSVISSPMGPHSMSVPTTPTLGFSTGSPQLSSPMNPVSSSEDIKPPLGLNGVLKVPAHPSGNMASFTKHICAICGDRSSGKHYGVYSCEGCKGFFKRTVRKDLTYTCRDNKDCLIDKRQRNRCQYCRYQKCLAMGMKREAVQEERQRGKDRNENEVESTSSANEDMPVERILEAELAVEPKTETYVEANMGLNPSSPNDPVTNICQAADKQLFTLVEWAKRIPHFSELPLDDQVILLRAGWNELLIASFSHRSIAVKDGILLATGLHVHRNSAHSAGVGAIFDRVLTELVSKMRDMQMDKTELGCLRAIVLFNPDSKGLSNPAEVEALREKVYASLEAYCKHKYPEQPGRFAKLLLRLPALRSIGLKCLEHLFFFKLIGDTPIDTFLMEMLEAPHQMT
Description: In Vitro FXR Assay (TK): TK-ECRE-luc reporter in transfected CV-1 cells. Type of experiment: cell-based. The conditions noted are these: 18 hrs, luminescence, maximum efficacy of <25% of the Fexarmine control classified as '+'. In outline:
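Cells are seeded in charcoal double-stripped FBS medium, transfected overnight with FXR/RXR expression and ECRE-driven luciferase reporter plasmids, then treated with serially diluted compounds for 18 h. Lysates are measured for luciferase light output.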

By EC50 is commonly meant the concentration giving half of the maximal effect. Lower therefore signals an effect from little substance. Molecule `CNC(=O)O[C@H]1CC[C@H](C(=O)N(C[C@H]2CC[C@H](c3ccc(OC)c(C)n3)CC2)c2cccc(-c3cnn(C4CCC4)c3)c2)CC1` [Compound 5.21, trans-4-((3-(1-Cyclobutyl-1H-pyrazol-4-yl)phenyl)((trans-4-(5-methoxy-6-methylpyridin-2-yl)cyclohexyl)methyl)carbamoyl)cyclohexyl methylcarbamate] gave an EC50 of at most 250 nM. To `COc1ccc([C@H]2CC[C@H](CN(c3cccc(-c4cnn(C5CC5)c4)c3)C(=O)[C@H]3CC[C@H](OC(=O)NCCCN(C)C)CC3)CC2)cc1C` [Compound 4.11, trans-4-((3-(1-Cyclopropyl-1H-pyrazol-4-yl)phenyl)((trans-4-(4-methoxy-3-methylphenyl)cyclohexyl)methyl)carbamoyl)cyclohexyl (3-(dimethylamino)propyl)carbamate] belongs at most 250 nM.

In turn, `COc1ccc([C@H]2CC[C@H](CN(c3cc(-c4coc(C5CC5)n4)ccn3)C(=O)[C@H]3CC[C@H](C(=O)O)CC3)CC2)cc1C` [Compound 18.02, trans-4-((4-(2-Cyclopropyloxazol-4-yl)pyridine-2-yl)((trans-4-(4-methoxy-3-methylphenyl)cyclohexyl)methyl)carbamoyl)cyclohexanecarboxylic acid] returned a concentration giving a half-maximal response (EC50) of at most 250 nM. To `CN(C)c1ccc([C@H]2CC[C@H](CN(c3cccc(-c4cnc(C5CC5)s4)c3)C(=O)[C@H]3CC[C@H](CC(=O)O)CC3)CC2)cn1` [Compound 20.06, 2-(trans-4-((3-(2-Cyclopropylthiazol-5-yl)phenyl)((trans-4-(6-(dimethylamino)pyridin-3-yl)cyclohexyl)methyl)carbamoyl)cyclohexyl)acetic acid] belongs at most 250 nM; to `CN(C)c1ccc(C23CCC(CN(c4cccc(-c5cnn(C6CC6)c5)c4)C(=O)[C@H]4CC[C@H](OC(=O)NCCO)CC4)(CC2)CC3)cn1` [Compound 4.12, 4-((3-(1-Cyclopropyl-1H-pyrazol-4-yl)phenyl)((4-(6-(dimethylamino)pyridin-3-yl)bicyclo[2.2.2]octan-1-yl)methyl)carbamoyl)cyclohexyl (2-hydroxyethyl)trans-carbamate], at most 250 nM; to `CN(C)c1ccc([C@H]2CC[C@H](CN(c3cccc(-c4coc(C5CC5)n4)c3)C(=O)[C@H]3CC[C@H](CC(=O)O)CC3)CC2)cn1` [Compound 21.06, 2-(trans-4-((3-(2-Cyclopropyloxazol-4-yl)phenyl)((trans-4-(6-(dimethylamino)pyridin-3-yl)cyclohexyl)methyl)carbamoyl)cyclohexyl) acetic acid], at most 250 nM. To `COc1ccc([C@H]2CC[C@H](CN(c3cc(-c4coc(C5CC5)n4)ccn3)C(=O)[C@H]3CC[C@H](OC(=O)N4CCOCC4)CC3)CC2)nc1C` [Compound 6.59, trans-4-((4-(2-Cyclopropyloxazol-4-yl)pyridine-2-yl)((trans-4-(5-methoxy-6-methylpyridin-2-yl)cyclohexyl)methyl)carbamoyl)cyclohexyl morpholine-4-carboxylate] belongs at most 250 nM.

For the molecule `COc1ccc([C@H]2CC[C@H](CN(c3cccc(-c4cnn(C(C)C)c4)c3)C(=O)[C@H]3CC[C@H](OC(=O)NCCO)CC3)CC2)cc1C#N` [Compound 6.20, trans-4-(((trans-4-(3-Cyano-4-methoxyphenyl)cyclohexyl)methyl)(3-(1-isopropyl-1H-pyrazol-4-yl)phenyl)carbamoyl)cyclohexyl (2-hydroxyethyl)carbamate], the EC50 was at most 250 nM. The result for `CNC(=O)O[C@]1(C)CC[C@@H](C(=O)N(C[C@H]2CC[C@H](c3ccc(OC)c(C)c3)CC2)c2cccc(-c3cnn(C(C)C)c3)c2)CC1` [Compound 5.52, trans-4-((3-(1-Isopropyl-1H-pyrazol-4-yl)phenyl)((trans-4-(4-methoxy-3-methylphenyl)cyclohexyl)methyl)carbamoyl)-1-methylcyclohexyl methylcarbamate] reads at most 250 nM; that for `COc1ccc([C@H]2CC[C@H](CN(c3cccc(-c4cnc(C(C)C)s4)c3)C(=O)[C@H]3CC[C@H](CC(=O)O)CC3)CC2)nc1C` [Compound 20.07, 2-(trans-4-((3-(2-Isopropylthiazol-5-yl)phenyl)((trans-4-(5-methoxy-6-methylpyridin-2-yl)cyclohexyl)methyl)carbamoyl)cyclohexyl) acetic acid], at most 250 nM; that for `COc1ccc([C@H]2CC[C@H](CN(c3cccc(-c4cnn(C5CC5)c4)c3)C(=O)[C@H]3CC[C@H](NC(=O)COCCO)CC3)CC2)cc1C` [Compound 32.01, trans-N-(3-(1-Cyclopropyl-1H-pyrazol-4-yl)phenyl)-4-(2-(2-hydroxyethoxy)acetamido)-N-((trans-4-(4-methoxy-3-methylphenyl)cyclohexyl)methyl)cyclohexanecarboxamide], at most 250 nM.

The molecule `COc1ccc([C@H]2CC[C@H](CN(c3cccc(-c4cnn(C(C)C)c4)c3)C(=O)[C@H]3CC[C@H](NC(=O)OC(C)(C)C)CC3)CC2)cc1C` [Compound 18.16, tert-Butyl (trans-4-((3-(1-isopropyl-1H-pyrazol-4-yl)phenyl)((trans-4-(4-methoxy-3-methylphenyl)cyclohexyl)methyl)carbamoyl)cyclohexyl) carbamate] gave an EC50 of at most 250 nM. Molecule `COc1ccc([C@H]2CC[C@H](CN(c3cc(-c4cnc(C5CC5)s4)ccn3)C(=O)[C@H]3CC[C@H](OC(=O)N4CC(O)C4)CC3)CC2)nc1C#N` [Compound 7.10, trans-4-(((trans-4-(6-Cyano-5-methoxypyridin-2-yl)cyclohexyl)methyl)(4-(2-cyclopropylthiazol-5-yl)pyridin-2-yl)carbamoyl)cyclohexyl 3-hydroxyazetidine-1-carboxylate] gave an EC50 of at most 250 nM.

`COc1ccc([C@H]2CC[C@H](CN(c3cccc(-c4cnc(C5CC5)s4)c3)C(=O)[C@H]3CC[C@H](NC(C)=O)CC3)CC2)cc1C` [Compound 25.09, trans-4-Acetamido-N-(3-(2-cyclopropylthiazol-5-yl)phenyl)-N-((trans-4-(4-methoxy-3-methylphenyl)cyclohexyl)methyl) cyclohexanecarboxamide] displayed a concentration giving a half-maximal response (EC50) of at most 250 nM. To `COc1ccc([C@H]2CC[C@H](CN(c3cccc(-c4coc(C(C)C)n4)c3)C(=O)[C@H]3CC[C@H](OC(=O)NCCO)CC3)CC2)nc1C` [Compound 6.48, trans-4-((3-(2-Isopropyloxazol-4-yl)phenyl)((trans-4-(5-methoxy-6-methylpyridin-2-yl)cyclohexyl)methyl)carbamoyl)cyclohexyl (2-hydroxyethyl)carbamate] belongs at most 250 nM. The result for `COc1ncc([C@H]2CC[C@H](CN(c3cccc(-c4cnn(C5CC5)c4)c3)C(=O)[C@H]3CC[C@H](OC(=O)NCCO)CC3)CC2)cc1Cl` [Compound 6.23, trans-4-(((trans-4-(5-Chloro-6-methoxypyridin-3-yl)cyclohexyl)methyl) (3-(1-cyclopropyl-1H-pyrazol-4-yl)phenyl)carbamoyl)cyclohexyl (2-hydroxyethyl)carbamate] reads at most 250 nM. To `COc1ccc([C@H]2CC[C@H](CN(c3cccc(-c4cnn(C5CC5)c4)c3)C(=O)[C@H]3CC[C@H](OC(=O)N4CC(O)C4)CC3)CC2)cc1C#N` [Compound 7.19, trans-4-(((trans-4-(3-Cyano-4-methoxyphenyl)cyclohexyl)methyl)(3-(1-cyclopropyl-1H-pyrazol-4-yl)phenyl)carbamoyl)cyclohexyl 3-hydroxyazetidine-1-carboxylate] belongs at most 250 nM. For `COc1ccc([C@H]2CC[C@H](CN(c3cc(-c4coc(C5CC5)n4)ccn3)C(=O)[C@H]3CC[C@H](OC(=O)NCCO)CC3)CC2)cc1C#N` [Compound 6.54, trans-4-(((trans-4-(3-Cyano-4-methoxyphenyl)cyclohexyl)methyl)(4-(2-cyclopropyloxazol-4-yl)pyridine-2-yl)carbamoyl)cyclohexyl (2-hydroxyethyl)carbamate], the half-maximal effective concentration (EC50) is at most 250 nM.

As for `COc1ccc([C@H]2CC[C@H](CN(c3cccc(-c4cnn(C5CC5)c4)c3)C(=O)[C@H]3CC[C@H](NC(=O)C4CCC4)CC3)CC2)cc1C` [Compound 30.01, trans-4-(Cyclobutanecarboxamido)-N-(3-(1-cyclopropyl-1H-pyrazol-4-yl)phenyl)-N-((trans-4-(4-methoxy-3-methylphenyl)cyclohexyl)methyl) cyclohexanecarboxamide], the EC50 is at most 250 nM.

(Values after patent publication US20220089575A1, “FARNESOID X RECEPTOR AGONISTS AND USES THEREOF” (Metacrine, Inc., priority 2017, published 2022).)
